Patent US5750754A, “Heterocyclic compounds” (Zeneca Limited, priority 1993, dated 1998)
Counter-ions that a name gives are not always drawn.

These compounds were tested against T1, human, citrated, platelet-rich plasma (Homo sapiens, UniProt P05106+P08514) (assay: Test (a): inhibition of ADP stimulated platelet aggregation (Born)). Details: ADP induced aggregation of human platelet-rich plasma.
T1 construct: aggregating human, citrated, platelet-rich plasma; endogenous in cells; host or cells: human platelets in citrated platelet-rich plasma
Format: cell-based
Source text: (i) aggregating human, citrated, platelet-rich plasma by addition of adenosine diphosphate so as to generate a dose-response curve;
(ii) generating a dose-response curve for ADP stimulated platelet aggregation in the presence of increasing amounts of a test compound (generally in the range 10-^5 M to 10-^10 M); and
(iii) calculating a pA2 value indicating potency of platelet aggregation inhibition for the test compound, averaged over several concentrations, from the calculated 50% response value for ADP aggregation in the presence and absence of the test compound.

T1 sequence (P08514 32-887 limits assumed): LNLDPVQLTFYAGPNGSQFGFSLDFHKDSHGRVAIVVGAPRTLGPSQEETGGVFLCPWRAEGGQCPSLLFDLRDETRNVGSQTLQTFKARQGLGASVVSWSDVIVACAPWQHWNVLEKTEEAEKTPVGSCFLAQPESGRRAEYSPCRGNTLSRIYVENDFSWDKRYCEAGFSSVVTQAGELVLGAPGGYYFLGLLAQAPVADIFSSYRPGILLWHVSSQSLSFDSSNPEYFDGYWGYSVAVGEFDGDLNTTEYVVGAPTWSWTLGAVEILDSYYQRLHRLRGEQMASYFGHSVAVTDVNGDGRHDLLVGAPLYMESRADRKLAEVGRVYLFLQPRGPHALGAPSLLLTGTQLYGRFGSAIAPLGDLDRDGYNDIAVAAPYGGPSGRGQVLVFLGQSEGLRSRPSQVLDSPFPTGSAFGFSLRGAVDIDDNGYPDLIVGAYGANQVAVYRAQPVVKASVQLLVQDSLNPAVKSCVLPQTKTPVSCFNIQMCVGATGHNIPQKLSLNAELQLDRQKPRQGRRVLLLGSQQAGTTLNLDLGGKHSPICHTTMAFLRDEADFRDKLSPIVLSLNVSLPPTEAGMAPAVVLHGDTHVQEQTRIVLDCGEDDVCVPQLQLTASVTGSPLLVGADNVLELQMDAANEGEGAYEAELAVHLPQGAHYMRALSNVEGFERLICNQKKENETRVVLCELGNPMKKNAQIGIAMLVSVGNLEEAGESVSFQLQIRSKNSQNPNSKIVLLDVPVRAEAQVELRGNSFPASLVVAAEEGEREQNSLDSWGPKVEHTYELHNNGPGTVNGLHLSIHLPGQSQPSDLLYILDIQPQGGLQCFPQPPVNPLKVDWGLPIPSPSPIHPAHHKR
T1 sequence (P08514 891-1039 limits assumed): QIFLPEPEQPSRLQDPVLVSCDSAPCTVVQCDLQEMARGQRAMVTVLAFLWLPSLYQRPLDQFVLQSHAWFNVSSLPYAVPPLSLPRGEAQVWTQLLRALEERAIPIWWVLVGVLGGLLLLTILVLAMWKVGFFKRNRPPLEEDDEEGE
T1 sequence (P05106 27-788): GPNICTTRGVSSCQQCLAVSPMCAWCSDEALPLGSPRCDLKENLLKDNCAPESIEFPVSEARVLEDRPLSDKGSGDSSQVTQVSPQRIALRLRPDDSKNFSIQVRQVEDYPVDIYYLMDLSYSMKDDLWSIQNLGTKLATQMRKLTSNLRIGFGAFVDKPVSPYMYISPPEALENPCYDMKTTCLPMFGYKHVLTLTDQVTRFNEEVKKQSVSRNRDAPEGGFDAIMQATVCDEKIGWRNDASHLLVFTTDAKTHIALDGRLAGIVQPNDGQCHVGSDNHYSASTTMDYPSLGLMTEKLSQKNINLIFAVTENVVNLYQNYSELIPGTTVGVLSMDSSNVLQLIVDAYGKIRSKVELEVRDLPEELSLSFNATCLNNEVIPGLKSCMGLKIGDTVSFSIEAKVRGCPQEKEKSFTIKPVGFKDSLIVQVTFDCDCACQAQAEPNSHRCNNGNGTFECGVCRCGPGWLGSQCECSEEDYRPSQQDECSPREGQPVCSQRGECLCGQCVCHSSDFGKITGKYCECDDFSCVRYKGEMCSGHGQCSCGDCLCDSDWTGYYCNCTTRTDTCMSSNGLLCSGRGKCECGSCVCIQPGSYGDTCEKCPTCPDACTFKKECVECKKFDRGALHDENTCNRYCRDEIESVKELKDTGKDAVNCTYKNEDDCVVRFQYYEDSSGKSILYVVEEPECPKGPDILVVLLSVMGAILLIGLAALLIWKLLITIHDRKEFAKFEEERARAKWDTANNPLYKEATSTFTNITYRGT

Row | Test (a): pA2 value indicating potency of platelet aggregation inhibition | Structure (SMILES)
1 | 7.3 | O=C(O)COc1ccc(CCN2CCN(c3ccncc3)CC2)cc1 [Example 148, 4-[2-[4-(4-Pyridyl)piperazin-1-yl]ethyl]phenoxyacetate acid dihydrochloride]
2 | 6.0 | O=C(O)CCCCCOc1ccc(Nc2ccncc2)cc1 [Example 188, 6-[4-(4-Pridylamino)phenoxy]hexanoic acid hydrochloride]

Same assay, conditions: ADP induced aggregation of human platelet-rich plasma; read-out: Test (a): pA2 value indicating potency of platelet aggregation inhibition (converted)

Row | Kb [nM] | Structure (SMILES)
3 | 31600 | CN(Cc1ccc(-c2ccc(OCC(=O)O)cc2)cc1)c1ccncc1 [Example 75, 4-[4'-[N-Methyl-N-(4-pyridyl)]aminomethyl]biphenyloxyacetic acid]
4 | 1580 | COC(=O)[C@H](Cc1ccc(OCCC2CCN(c3ccncc3)CC2)cc1)NS(C)(=O)=O [Example 85, Methyl 2-S-(methsulphonylamino)-3-[4-[2-[1-(4-pyridyl)piperidin-4-yl]ethoxy]phenyl]propionate]
5 | 10000 | O=C(O)CCNC(=O)c1cccc(N2CCN(c3ccncc3)CC2)n1 [Example 74, 3-[6-[4-(4-Pyridyl)piperazin-1-yl]pyrid-2-yl]carboxamidopropionic acid]
6 | 7940 | COC(=O)CNC(=O)COc1ccc(C(=O)CN2CCN(c3ccncc3)CC2)cc1 [Example 146, Methyl N-[4-[2-[4-(4-pyridyl)piperazin-1-yl]acetyl]phenoxyacetyl]glycinate]
7 | 5010 | CCCCS(=O)(=O)Nc1ccc(C(=O)CN2CCN(c3ccncc3)CC2)cc1 [Example 20, N-4-[2-[4-(4-Pyridyl)piperazin-1-yl]acetyl]phenyl-1-butanesulphonamide]
8 | 251 | C=CCc1cc(N2CCN(c3ccncc3)CC2)ccc1OCCCC(=O)OCC [Example 205, Ethyl 4-[2-allyl-4-[4-(4-pyridyl)piperazin-1-yl]phenoxy]butyrate]
9 | 126 | CCOC(=O)COc1ccc(C(=O)CN2CCN(c3ccncc3)CC2=O)cc1 [Example 215, Ethyl 4-[2-[4-(4-pyridyl)piperazin-2-one-1-yl]acetyl]phenoxyacetate]
10 | 31.6 | CCCCS(=O)(=O)NC(CCOc1ccc(N2CCN(c3ccncc3)CC2)cc1)C(=O)O (racemic) [Example 219, RS 2-n-Butanesulphonylamino-4-[4-[4-(4-pyridyl)piperazin-1-yl]phenoxy]butyricacid]
11 | 316 | CCCc1cc(N2CCN(c3ccncc3)CC2)ccc1OCCCC(=O)O [Example 208, 4-[2-n-Propyl4-[4-(4-pyridyl)piperazin-1-yl]phenoxy]butyric acid]
12 | 25.1 | CCCc1cc(C(=O)CN2CCN(c3ccncc3)CC2=O)ccc1OCC(=O)O [Example 240, [2-Propyl-4-[2-[4-(4-pyridyl)piperazin-2-one-1-yl]acetyl]]phenoxyacetic acid]
13 | 15800 | CCOC(=O)CCCCCOc1ccc(Nc2ccncc2)cc1 [Example 187, Ethyl 6-[4-(4-pyridylamino)phenoxy]hexanoate]
14 | 200 | CCOC(=O)CCCOc1ccc(N2CCN(c3ccncc3)CC2)cc1C [Example 209, Ethyl 4-[2-methyl-4-[4-(4-pyridyl)piperazin-1-yl]phenoxy]butyrate]
15 | 2510 | O=C(O)CN1CCCC(Oc2ccc(N3CCN(c4ccncc4)CC3)cc2)C1 (stereo not shown) [Example 239]
16 | 158 | CN(C)c1ccncc1CCCOc1ccc(C[C@H](NC(=O)OCc2ccccc2)C(=O)O)cc1 [Example 225]
17 | 501 | O=C(O)CCC(=O)Nc1ccc(N2CCN(c3ccncc3)CC2)cc1 [Example 199, 4-Oxo-4-[4-[4-(4-pyridyl)piperazine-1-yl]phenyl]aminobutyric acid]
18 | 2000 | CCOC(=O)CNC(=O)COc1ccc(C(=O)CN2CCN(c3ccncc3)CC2=O)cc1 [Example 216, Ethyl N 4-[2-(4-(4-pyridyl)piperazin-2-one-1-yl)acetyl]phenoxyacetylglycinate]
19 | 316 | Cc1cc(N2CCN(c3ccncc3)CC2)ccc1OCCCC(=O)O [Example 210, 4-[2-Methyl-4-[4-(4-pyridyl)piperazin-1-yl]phenoxy]-butyric acid]
20 | 794 | O=C(O)CCN(Cc1ccccc1)C(=O)c1ccc(N2CCN(c3ccncc3)CC2)cc1 [Example 236, 3-[4-[4-(4-Pyridyl)piperazin-1-yl]]-N-benzylbenzamidopropionic acid]
21 | 10 | O=C(O)CCCOc1ccc(N2CCN(c3ccncc3)CC2=O)cc1 [Example 243, 4-[4-[4-(4-Pyridyl)piperazin-2-one-1-yl]phenoxy]butyric acid]
22 | 316 | CCOC(=O)CCCOc1ccc(N2CCN(c3ccncc3)CC2=O)cc1 [Example 242, Ethyl 4-[4-[4-(4-pyridyl)piperazin-2-one-1yl]phenoxy]butyrate]
23 | 158 | O=C(O)CC(COc1ccc(N2CCN(c3ccncc3)CC2)cc1)c1ccccc1 (racemic) [Example 221, RS 3-Phenyl-4-[4-[4-(4-pyridyl)piperazin-1-yl]phenoxy]-butyric acid]
24 | 31600 | COC(=O)c1ccc(Oc2ccc(N3CCN(c4ccncc4)CC3)cc2)nc1 [Example 232, Methyl 6-[4-[4-(4-pyridyl)piperazin-1-yl]phenoxy]pyridine-3-carbxylate]
25 | 3160 | O=C(O)CCCc1ccc(CN2CCN(c3ccncc3)CC2)cc1 [Example 180, 4-[4-[4-(4-Pyridyl)piperazin-1yl]methylphenyl]butyric acid, dihydrochloride]
26 | 3160 | O=C(O)CC(COc1ccc(N2CCN(c3ccncc3)CC2)cc1)Cc1ccccc1 (racemic) [Example 220, RS 3-Benzyl-4-[4-[4-(4-pyridyl)piperazin-1-yl]phenoxy]-butyric acid]
27 | 1000 | CCCCS(=O)(=O)NC(CCOc1ccc(N2CCN(c3ccncc3)CC2)cc1)C(=O)OC (racemic) [Example 218, RS Methyl 2-n-butanesulphonylamino-4-[4-[4-(4-pyridyl)piperazin-1-yl]phenoxy]butyrate]
28 | 6.31 | Cc1cc(C(=O)CN2CCN(c3ccncc3)CC2=O)ccc1OCC(=O)O [Example 241, [2-Methyl-4-[2-[4-(4-pyridyl)piperazin-2-one-1-yl]acetyl]]phenoxyacetic acid]
29 | 1260 | O=C(O)CN1CCC(Oc2ccc(N3CCN(c4ccncc4)CC3)cc2)CC1 [Example 238, 4-[4-[4-(Pyridyl)piperazin-1-yl]phenoxy]piperidineacetic acid]
30 | 316 | CCOC(=O)CCCOc1ccc(N2CCN(c3ccncc3)CC2)cc1[N+](=O)[O-] [Example 217, Ethyl 4-[2-nitro-4-[4-(4-pyridyl)piperazin-1-yl]phenoxy]butyrate]

Row | Structure (SMILES) | Kb [nM]
31 | CC(C)(C)OC(=O)NC(CCOc1ccc(N2CCN(c3ccncc3)CC2)cc1)C(=O)O (racemic) [Example 212, RS 2-t-Butoxycarbonylamino-4-[4-[4-(4-pyridyl)piperazin-1-yl]phenoxy]butyric acid] | 79.4

These compounds were tested against T2, purified human platelet fibrinogen receptor (GPIIb/IIIa) (Homo sapiens, UniProt P05106+P08514) (assay: Test (b): GPIIb/IIIa ELISA, inhibition of biotinylated fibrinogen binding). Details: purified human platelet GPIIb/IIIa, ELISA.
T2 construct: is isolated from human platelet lysates; from tissue
Procedure: (i) Preparation of human platelet lysates.
Platelet rich plasma (PRP) is harvested by centrifugation (1000 rpm, 15 mins) of whole blood anticoaoulated with acid citrate dextrose (trisodium citrate 85 mM, citric acid 70 mM, d-glucose 110 mM) 1 part to 6 parts blood. Prostacyclin (PGI2, 1 μM) is added to the PRP before centrifugation (2400 pm, 15 mins) and the resulting pellet is resuspended in modified Tyrodes' solution (NaCl 130 mM, KCl 26 mM, NaHCO3 12 mM, NaH2 PO4 0.5 mM, MgCl2 1 mM, CaCl2 20 mM, Glucose 12 mM, HEPES 5 mM) containing bovine serum albumin 3.5 g/L, PGI2 1 μM and hirudin 0.5 U/ml. The platelet suspension is centrifuged (2400 rpm, 15 mins) and the resultant pellet resuspended in 500 μl of lysis buffer (octyl glucoside 50 mM, HEPES 10 mM, NaCl 150 mM, CaCl2 1 mM, MgCl2 1 mM, PMSF 1 mM, NEM 10 mM, leupeptin 0.1 mM), agitated at 4° C. for 15 minutes then centrifuged at 24000 rpm, 15 mins. The supernatant is stored at 4° C. and the pellet re-suspended in 500 μl of lysis buffer. The centrifugation process is repeated a further 3 tlimes, the pooled supernatants being stored at -70° C.
(ii) Receptor purification.
GP Ilb/Ila is isolated from human platelet lysates using a 2 ml peptide (KYGRGDS) coupled CNBr activated Sepharose affinity column. A 1.5 ml volume of platelet lysate is placed on the column and allowed to stand overnight at 4° C. Buffer (30 mls, octyl gluicoside 25 mM, HEPES 10 mM, NaCl 150 mM, CaCl2 1 mM, MgCl2 1 mM, PMSF 1 mM, NEM 10 mM, leupeptin 0.1 mM) is passed through the column and 2 ml fractions are collected throughout. GPIIb/IIIa is eluted with 12 mls of buffer containing HHLGGAKQAGDV (2 mg/ml, pH 7.5), the column is washed using 4 mls buffer and the remaining GPIIb/IIIa eluted using 12 mls buffer containing GRGDSPG (1 mg/ml pH 7.5). The column is finally washed using 20 mls of buffer and can be used for up to three such preparations. Fractions containing FGPIIb/IIIa are identified using gel electrophoresis and immunoblotting, pooled and stored at -70° C.
96 well microtitre plates are coated with 100 μl purified human platelet fibrinogen receptor (GPIIb/IIIa) diluted in coating buffer (Tris-HCl 20 mM, NaCl 150 mM, CaCl2 1 mM, pH 7.4) and left overnight at 4° C. The plates are washed using washing buffer (Tris-HCl 50 mM, NaCl 100 mM, CaCl2 2 mM, pH 7.4) and non-specific binding, blocked by the addition of 200 μl 2% BSA (2 hours, 30° C.). The plates are washed prior to incubation (2 hours, 30° C.) with 100 μl biotinylated fibrinogen ([…]) containing either vehicle or test compound. The plates are washed, incubated with streptavidin (5 μg/ml, 1 hour, ambient temperature), then washed again before the addition of 100 μl biotinylated horse radish peroxidase (0.1 μg/ml, 1 hour, ambient temperature). The plates are then washed and equal volumes of peroxidase substrate (3, 5, tetramethyl benzidine 0.4 g/l) and H2 O2 (0.02%) are mixed together immediately before addition of 150 μl to each well. Colour is allowed to develop for 10-15 mins before optical densities are read at 650 nm.
The concentration of compound required to cause 50% inhibition of biotinylated fibrinogen binding, is calculated and expressed as a pIC50 (-log(IC50)).

T2 sequence (P08514 32-887 limits assumed): as the sequence (P08514 32-887 limits assumed) above
T2 sequence (P08514 891-1039 limits assumed): as the sequence (P08514 891-1039 limits assumed) above
T2 sequence (P05106 27-788): as the sequence (P05106 27-788) above

Row | Test (b): pIC50 (-log(IC50)), 50% inhibition of biotinylated fibrinogen binding to GPIIb/IIIa | Structure (SMILES)
32 | 7.5 | O=C(O)COc1ccc(CCN2CCN(c3ccncc3)CC2)cc1 [Example 148, 4-[2-[4-(4-Pyridyl)piperazin-1-yl]ethyl]phenoxyacetate acid dihydrochloride]

Same assay, conditions: purified human platelet GPIIb/IIIa, ELISA; read-out: Test (b): pIC50 (-log(IC50)), 50% inhibition of biotinylated fibrinogen binding to GPIIb/IIIa (converted)

Row | IC50 [µM] | Structure (SMILES)
33 | 3.98 | CN(Cc1ccc(-c2ccc(OCC(=O)O)cc2)cc1)c1ccncc1 [Example 75, 4-[4'-[N-Methyl-N-(4-pyridyl)]aminomethyl]biphenyloxyacetic acid]
34 | 0.251 | COC(=O)[C@H](Cc1ccc(OCCC2CCN(c3ccncc3)CC2)cc1)NS(C)(=O)=O [Example 85, Methyl 2-S-(methsulphonylamino)-3-[4-[2-[1-(4-pyridyl)piperidin-4-yl]ethoxy]phenyl]propionate]
35 | 2 | O=C(O)CCNC(=O)c1cccc(N2CCN(c3ccncc3)CC2)n1 [Example 74, 3-[6-[4-(4-Pyridyl)piperazin-1-yl]pyrid-2-yl]carboxamidopropionic acid]
36 | 6.31 | COC(=O)CNC(=O)COc1ccc(C(=O)CN2CCN(c3ccncc3)CC2)cc1 [Example 146, Methyl N-[4-[2-[4-(4-pyridyl)piperazin-1-yl]acetyl]phenoxyacetyl]glycinate]
37 | 15.8 | CCCCS(=O)(=O)Nc1ccc(C(=O)CN2CCN(c3ccncc3)CC2)cc1 [Example 20, N-4-[2-[4-(4-Pyridyl)piperazin-1-yl]acetyl]phenyl-1-butanesulphonamide]
